Results published in patent US5278181A, “Soluble alkyl[5-[amino (phenyl)methyl]-1H-benzimidazol-2-yl] carbamate anthelmintics” (priority 1992, dated 1994).
Several values for one entry are separate records, joined by “and”; a condition that tells them apart may be missing. Equal entries are not always repeated.

Tested on: Acanthocheilonema viteae
Assay: Antifilarial dual infection screen in jirds: adult A. viteae burden and microfilaremia
Type: in vivo, in Mongolian jirds
Excerpt: Dual infections of the filarial worms Brugia pahangi and Acanthocheilonema viteae in jirds are used routinely for antifilarial screening [McCall, J. W., McTier, T. L., and Rowan, S. J., "In vivo models for evaluating potential antifilarial agents", Onchocerciasis/Filariasis (Proceedings of a Symposium sponsored by the World Health Organization), Kalamazoo, Mich., Apr. 8-10, 23-24 (1986)].
For this dual infection screen, male Mongolian jirds weighing 50-60 g are infected SC with 10 (5 male and 5 female) adult A. viteae, transplanted under sodium pentobarbital anesthesia (48 mg/kg) from donor hamsters infected SC 8 weeks earlier. Two weeks later, 20 (10 male and 10 female) adult B. pahangi, taken from donor jirds infected IP 8 weeks earlier, are transplanted into the peritoneal cavity of each jird under sodium pentobarbital anesthesia. After an additional week, when the jirds have acceptable levels of microfilaremia, they are randomly allocated to treatment groups of 3 animals each and a nontreated group of 4-6 animals. Microfilaremia is determined on days 0 (just prior to the first dose), 4 and 56 post-treatment. Unless indicated otherwise, compounds are suspended in hydroxyethylcellulose (0.5%) - Tween 80 (0.1%) and administered SC at 100 mg/kg/day for 5 consecutive days. All jirds are killed on day 56 post-treatment to determine the effects of drugs on adults of A. viteae and B. pahangi. Live worms are identified as to species, noted as to sex, and counted. The number of dead and/or encapsulated worms is also recorded. A reduction of ≥80% in microfilaremia or ≥50% in adult worm burden (either species) compared with pre-treatment microfilaremia or non-treated control worm burden, respectively, is considered to be significant. For secondary testing with this dual infection screen, groups of 7 animals each are used. For oral dosing, drugs are dissolved or suspended in hydroxyethylcellulose - Tween 80 and administered by gavage.

## COC(=O)Nc1nc2cc(C(N)c3ccc(F)cc3)ccc2[nH]1.Cl.Cl (racemic) [Example 2, Methyl (±)-[5-[Amino(4Fluorophenyl)Methyl]-1H-Benzimidazol-2-yl]Carbamate Dihy drochloride Salt]
1.56 mg/kg/day × 5 days, SC, day 56
  % Macrofilarial reduction, A. viteae: 48%
3.13 mg/kg/day × 5 days, SC
  % Microfilarial reduction, A. viteae, Day 4: 88%
  % Microfilarial reduction, A. viteae, Day 56: 100%
3.13 mg/kg/day × 5 days, SC, day 56, 3.13 mg/kg/day
  % Macrofilarial reduction, A. viteae: 74% and 69%
6.25 mg/kg/day × 5 days, SC
  % Microfilarial reduction, A. viteae, Day 4: 83%
  % Microfilarial reduction, A. viteae, Day 56: 100%
6.25 mg/kg/day × 5 days, SC, day 56
  % Macrofilarial reduction, A. viteae: 100%
12.5 mg/kg/day × 1 day, SC, day 56
  % Macrofilarial reduction, A. viteae: 83%
12.5 mg/kg/day × 5 days, SC
  % Microfilarial reduction, A. viteae, Day 4: 80%
  % Microfilarial reduction, A. viteae, Day 56: 100%
12.5 mg/kg/day × 5 days, SC, day 56
  % Macrofilarial reduction, A. viteae: 100%
25 mg/kg/day × 1 day, SC, day 56
  % Macrofilarial reduction, A. viteae: 96%
25 mg/kg/day × 5 days, SC, day 56
  % Macrofilarial reduction, A. viteae: 100%
75 mg/kg/day × 5 days, oral, day 56
  % Macrofilarial reduction, A. viteae: 83%
100 mg/kg/day × 5 days, oral
  % Microfilarial reduction, A. viteae, Day 4: 50%
  % Microfilarial reduction, A. viteae, Day 56: 75%
100 mg/kg/day × 5 days, oral, day 56
  % Macrofilarial reduction, A. viteae: 80%
